From ChEMBL document CHEMBL3301361, “Experimental in vitro DMPK and physicochemical data on a set of publicly disclosed compounds”
In brackets after ≈: the same amount, converted by molar mass.

Assays:
in vitro [1] = conditions: SD, HW or BN, rat, plasma
in vitro [2] = conditions: human
physchem [3] = conditions: octan-1-ol/water
in vitro [4] = conditions: hepatocytes
in vitro [5] = conditions: human, plasma, PPB
physchem [6] = conditions: pH 7.4 buffer

fraction unbound at 5 h (in vitro [1]) | microsomal CLint (in vitro [2]; liver microsomes) [µL/min/mg] | logD (physchem [3]; pH 7.4, LogD7.4) | hepatocyte CLint (in vitro [4]) [µL/min/1e6 cells] | fraction unbound at 5 h (in vitro [5]) | microsomal CLint (in vitro [2]; microsomes) [µL/min/mg] | logD (physchem [3]; pH 7.4) | solubility thermodynamic (physchem [6]) [µM] | Compound
0.294 | 41 | 1.5 | 136 | – | – | – | – | N#C[C@]1(NC(=O)[C@@H](N)Cc2cccs2)C[C@H]1c1ccccc1
0.179 | – | – | 108 | 0.069 | 26 | – | – | O=c1[nH]c2c(O)ccc([C@@H](O)CN[C@H]3CCC[C@@H]3OCc3ccccc3)c2s1
0.0968 | > 150 | – | > 150 | – | – | 3.74 | – | COc1ccccc1CN1C(=O)c2ccccc2C1C(=O)NC1CCC(C)CC1 (centres undefined)
0.0017 | – | – | 51 | – | 4 | – | 3.2 (≈ 1.07 µg/mL) | Cc1ccccc1/N=N/c1ccc(NC(=O)c2ccnn2C)c(C)c1
0.089 | – | 3.36 | 21 | – | < 3 | – | – | Cc1ccc(C(=O)NC2CC2)cc1-c1ccc(C(=O)NCC2CC2)nc1
0.0101 | 74 | – | 16 | – | – | 3.96 | – | COc1cccc2sc(NC(=O)c3ccccc3)nc12
0.0234 | 54.5 | 0.79 | 47.9 | – | – | – | – | CCC(CC)NC(=O)c1cnn(-c2ccccc2)c1NS(=O)(=O)c1ccc(C)cc1
0.0066 | > 150 | 1.9 | 40 | – | – | – | – | Cc1ccc(S(=O)(=O)Nc2c(C(=O)NCc3ccccc3)cnn2-c2ccccc2)cc1
0.051 | 12 | – | 51 | – | – | – | – | Cc1ccc(S(=O)(=O)Nc2c(C(=O)NC(C)C)c(C)nn2-c2ccccc2)cc1
0.0224 | 58 | 1.94 | 17 | 0.0066 | – | – | – | Cc1ccc(S(=O)(=O)Nc2c(C(=O)NC3CCCCC3C)c(C)nn2-c2ccccc2)cc1 (centres undefined)
0.0335 | – | 0.66 | 17.3 | 0.0059 | 15.7 | – | – | CCC(C)NC(=O)c1c(C)nn(-c2ccccc2)c1NS(=O)(=O)c1ccc(C)cc1 (centres undefined)
0.232 | < 3 | – | 13.8 | 0.0374 | – | – | – | Cc1c(Cl)ccc(OC2CCN(CC3CCN([C@@H](Cc4ccc(F)cc4)C(=O)O)CC3)CC2)c1Cl
0.0366 | < 3 | 3.7 | 74.1 | – | – | – | – | Cc1nocc1C(=O)Nc1ccc(-c2ccccc2OC(F)(F)F)c(N)n1
0.0391 | < 3 | 3.49 | 29 | – | – | – | – | C[C@H](CO)n1ccc2c(NC(=O)Cc3ccc(Cl)c(C(F)(F)F)c3)cccc2c1=O
0.0909 | < 3 | -0.34 | 12.5 | 0.089 | – | – | – | O=C(NCC1(O)CCCCCC1)c1cc(-c2ccccc2C(=O)O)ccc1Cl

Second part, the compound before the results:

Compound | fraction unbound at 5 h (in vitro [1]) | microsomal CLint (in vitro [2]; liver microsomes) [µL/min/mg] | logD (physchem [3]; pH 7.4, LogD7.4) | hepatocyte CLint (in vitro [4]) [µL/min/1e6 cells] | fraction unbound at 5 h (in vitro [5]) | microsomal CLint (in vitro [2]; microsomes) [µL/min/mg] | logD (physchem [3]; pH 7.4) | solubility thermodynamic (physchem [6]) [µM]
CN(CCCOCCOCCc1ccccc1)CCc1ccc(O)c2nc(O)sc12 | 0.24 | 35 | – | > 150 | 0.0988 | – | – | –
COc1cc2nnc(C(N)=O)c(Nc3ccc(F)cc3F)c2cc1N1CCN(C)CC1 | 0.157 | – | 2.36 | 16 | 0.0948 | 33 | – | –
COc1ccnc(CCc2nc3ncccc3[nH]2)c1 | 0.309 | < 3 | 1.69 | 18.9 | – | – | – | –
CSCCC(NC(=O)c1ccccc1)c1nc2ccccc2n1Cc1ccc(C#N)cc1 (centres undefined) | 0.0245 | > 150 | 4.24 | > 150 | – | – | – | –
CCC(CC)NC(=O)c1cnn(-c2ccccn2)c1NS(=O)(=O)c1ccc(C)cc1 | 0.0499 | < 3 | 0.27 | 9.95 | – | – | – | –
Cc1ccc(S(=O)(=O)Nc2c(C(=O)N[C@@H](C)C(C)(C)C)c(C)nn2C2CCCC2)cc1 | 0.0268 | – | 2 | 8 | 0.0214 | 21 | – | –
COCC(C)n1nc(C)c(C(=O)N[C@@H](C)C(C)(C)C)c1NS(=O)(=O)c1ccc(C)cc1 (some centres undefined) | 0.139 | 6 | 0.61 | < 3 | 0.0836 | – | – | –
Cc1ccc(S(=O)(=O)Nc2c(C(=O)N[C@@H](C)C(C)(C)C)c(C)nn2C2CCS(=O)(=O)CC2)cc1 | 0.258 | – | 0.25 | 4 | – | < 3 | – | –
CCC[C@@H](CNC(=O)c1nc(Cl)c(N)nc1N)[N+](C)(C)CCCc1ccc(OC)cc1 | 0.454 | – | 0.4 | 24 | 0.511 | 87.1 | – | –
C[C@]12Cc3cnn(-c4ccc(F)cc4)c3C=C1CC[C@@]2(O)CCc1ccc(F)cc1C(N)=O | 0.0046 | – | 3.8 | 52.5 | 0.0321 | 105 | – | –
C[C@@H]1CN(Cc2nnc(-c3cc(-c4cccc5[nH]ccc45)cc4[nH]ncc34)o2)C[C@H](C)O1 | 0.0313 | 107 | 4.01 | 55 | 0.0191 | – | – | –
CC(C)c1nc2ccccc2n1-c1nc(N2CCOCC2)c2nc(OC3CN(C4CCS(=O)(=O)CC4)C3)n(C)c2n1 | 0.22 | – | 2.9 | 10 | 0.22 | 20.4 | – | –
COc1ccc(CNC(=O)Nc2ncc([N+](=O)[O-])s2)cc1 | 0.0108 | 56 | 2.9 | 91 | 0.0032 | – | – | –
CC(C)(CCCCCOCCc1ccccc1)NCCc1ccc(O)c2nc(O)sc12 | 0.0229 | – | 2.92 | 93 | – | 48.7 | – | –
CC1(C)[C@@H]2CC[C@@]1(CS(=O)(=O)N1CCN(c3ccc(C(F)(F)F)cn3)CC1)C(=O)C2 | 0.0191 | 51 | – | 141 | 0.0092 | – | – | –
O=C(NC1CC1)c1cn(-c2cccc(C#Cc3cccnc3)c2)c2ncccc2c1=O | 0.0082 | – | – | 29 | – | 7 | – | –
O=C(CC12CC3CC(CC(C3)C1)C2)Nc1cccc2c(=O)n(C(CO)CO)ccc12 | 0.117 | 42 | 2.62 | 19 | – | – | – | –
CCc1c2c(nc3ccc(O)cc13)-c1cc3c(c(=O)n1C2)COC(=O)[C@]3(O)CC [7-ETHYL-10-HYDROXYCAMPTOTHECIN] | 0.0948 | – | 1.6 | 24 | – | 25.1 | – | –
CCc1cnn2c(NCc3ccc[n+]([O-])c3)cc(N3CCCC[C@H]3CCO)nc12 [DINACICLIB] | 0.176 | – | – | > 150 | 0.0988 | > 150 | – | –
Cc1nc(-c2ccc(OCC(C)C)c(C#N)c2)sc1C(=O)O [FEBUXOSTAT] | 0.0052 | – | 0.94 | 12.7 | – | < 3 | – | –
